Measured values reported in patent US20050026846A1, “Pharmaceutical compositions comprising alkanoyl L-carnitine in combination with a statine for treating pathologies brought about by an altered lipid metabolism” (SIGMA-TAU INDUSTRIE FARMACEUTICHE RIUNITE S.p.A., priority 1997, published 2005).

Tests used:
Assay type in all cases: in vivo, human
[1] = tested on: hypertriglyceridaemic patients; test: Clinical study: triglyceridaemia (blood-chemistry tests); conditions: for Triglyceridaemia, statistical significance (p) vs baseline: propionyl L-carnitine 2 g/day, Student's t-test for paired data
Description: (§1) Eight hypertriglyceridaemic patients (3 males and 5 females) were recruited for the study, with a mean age of 65 years (range: 52-70), presenting mean triglyceridaemia values of 213.0±21.18 mg % and mean cholesterolaemia values of 158.1±25.90 mg %, who were put on a dietary regimen consisting in 40 Kcal/kg, 1.2 g/kg proteins and 1.4 g/kg lipids daily.
(§2) After baseline determinations of cholesterolaemia, triglyceridaemia, bilirubinaemia, alkaline phosphatase, protidaemia, GOT and GPT, all subjects took propionyl L-carnitine 2 g/day os for 60 days, which was discontinued on day 61 for a 30-day wash-out period. Simvastatin was then administered at a dose of 10 mg/day os in the evening for 30 days, followed by a further 30-day washout period and then by another 30-day period during which propionyl L-carnitine 1.5 g/day os and simvastatin 5 mg/day os were administered simultaneously.
(§3) Blood-chemistry tests were performed before and after each course of drug treatment and at the end of each wash-out period. The data obtained were subjected to statistical analysis using Student's t-test for paired data (Table 1).

[2] = tested on: hypertriglyceridaemic patients; test: Clinical study: cholesterolaemia (blood-chemistry tests); conditions: for Cholesterolaemia, statistical significance (p) vs baseline: propionyl L-carnitine 2 g/day, Student's t-test for paired data
Description: as §1, §2, §3

[3] = tested on: hypertriglyceridaemic patients; test: Clinical study: side effects; conditions: propionyl L-carnitine 2 g/day or 1.5 g/day os; simvastatin 10 or 5 mg/day os
Description: as §1, §2
All patients completed the study according to the procedures described. […] During the wash-out period the mean triglyceridaemia value recorded was 202.5±9.71 mg %, whereas the mean baseline value was 213.0±21.1 1 mg % (Table 2).

[4] = 30 days os, simvastatin 10 mg/day, combination 1.5 g/day + 5 mg/day

Row | SMILES | Triglyceridaemia, statistical significance (p) vs baseline [1, 4] | Triglyceridaemia, statistical significance (p) vs baseline ([1]; 30 days os, simvastatin 10 mg/day, combination 1.5 g/day + 5 mg/day, listed as Propionyl L-carnitine) | Triglyceridaemia, statistical significance (p) vs baseline ([1]; 60 days os) | Triglyceridaemia, statistical significance (p) vs baseline ([1]; 60 days os, listed as Propionyl L-carnitine) | triglyceridaemia after treatment, significance (p): propionyl L-carnitine vs simvastatin ([1]; each administered alone) | Cholesterolaemia, statistical significance (p) vs baseline [2, 4] | Cholesterolaemia, statistical significance (p) vs baseline ([2]; 60 days os) | side effects attributable to the drugs during the study period [3] | mean post-treatment triglyceride value ([1]; after 30 days os, simvastatin 10 mg/day, or propionyl L-carnitine 1.5 g/day + simvastatin 5 mg/day, baseline 213.0±21.18 mg %, 8 patients) [mg %] | mean cholesterolaemia value after treatment ([2]; after 30 days os, simvastatin 10 mg/day, or propionyl L-carnitine 1.5 g/day + simvastatin 5 mg/day, baseline 158.12±25.90 mg %, 8 patients) [mg %]
1 | CCC(=O)O[C@H](CC(=O)[O-])C[N+](C)(C)C [propionyl L-carnitine] | < 0.3671 | p < 0.3671 | < 0.0272 | p < 0.0272 | < 0.167 | p < 0.4795 | p < 0.0198 | no side effects | – | –
2 | CCC(C)(C)C(=O)O[C@H]1C[C@@H](C)C=C2C=C[C@H](C)[C@H](CC[C@@H]3C[C@@H](O)CC(=O)O3)[C@H]21 [simvastatin, reference compound] | – | – | – | – | – | p < 0.0585 | – | – | 193.8±22.63 | 156.75±22.82
